Assay results from patent US20150253330A1, “PRE-SELECTION OF SUBJECTS FOR THERAPEUTIC TREATMENT WITH AN HSP90 INHIBITOR BASED ON HYPOXIC STATUS” (Synta Pharmaceuticals Corp., priority 2012, published 2015).

Experiments:
solid tumors = test: Phase I dose escalation study, twice-weekly administration in patients with solid tumors; format: in vivo, human
Protocol: An open-label Phase 1 dose-escalation study in subjects with solid tumors was performed. The first cohort consisted of three subjects who received 2 mg/m^2 of ganetespib during a 1-hour infusion 2 times per week (e.g., [Monday, Thursday] or [Tuesday, Friday]) for three consecutive weeks followed by a 1 week dose-free interval. The first infusion for the first three subjects was staggered by a minimum of 5 days between subjects. This staggered enrollment scheme was followed for the first cohort only. Subjects tolerating ganetespib continued treatment past week 8 until disease progression as long as the re-treatment criteria continued to be met.
Subsequent cohorts were originally planned to receive escalating doses of 4, 7, 10, 14, 19, 25, 33, 40, and 48 mg/m^2, provided that the previous dose was well-tolerated during cycle 1 (week 1-4). The dose escalation scheme was updated to 25, 50, 75 and 100 mg/m^2, provided that the previous dose was well-tolerated during cycle 1. Following the completion of enrollment at 50 mg/m^2 twice per week, subsequent cohorts were to be treated at 100 mg/m^2 (100% increase above prior dose) and 120 mg/m^2 (20% increase above prior dose), with further dose increments to be approximately 20% over the previous dose level, until the maximum tolerated dose (MTD) was determined. Enrollment was completed at 100 mg/m^2 and the next doses planned were 120 mg/m^2 and 144 mg/m^2.
There had to be at least three evaluable subjects in a cohort before dose escalation could occur. […] Once a subject experienced a DLT the cohort was expanded to six subjects. If only 1 of 6 subjects experienced a DLT, further dose escalation was allowed. However, if 2 of 3 or 2 of 6 subjects experienced a DLT, dose escalation terminated.
A subject's duration of participation included a 2-week screening period and two 4-week treatment cycles totaling approximately 10 weeks. However, at the investigator's discretion, subjects tolerating ganetespib continued treatment past week 8 until disease progression.
The subjects in this study had histologically- or cytologically-confirmed non-hematological malignancy that was metastatic or unresectable. The subjects were documented to be refractory to, or were not candidates for, current standard therapy.
Ganetespib was formulated using 90% v/v PEG 300 and 10% v/v Polysorbate 80 at a concentration of 8 mg/mL and was packaged in a Type I glass amber vial, stoppered with a Flurotec-coated stopper, and sealed. […] The formulation was further diluted with 5% dextrose for injection in infusion container (DEHP-free 500 mL) to a concentration range of 0.02 to 1.2 mg/mL and administered via infusion tubing (DEHP-free) with a 0.22 micron end filter over an hour to the patient. The dosing solution once prepared was administered within 3 hours. Eligible subjects received the drug during a 1-hour infusion 2 times per week for 3 consecutive weeks followed by a 1-week dose-free interval. The amount of ganetespib administered depended upon the cohort to which the subject was assigned and the subject's body surface area (BSA).
A person with triple negative breast cancer (with Stage III invasive ductal carcinoma) from Example 1 enrolled in a Phase I dose escalation study of ganetespib. The patient's disease had progressed on 7 prior chemotherapeutic regimens. The patient was administered 144 mg/m^2 of ganetespib twice-weekly for 3 weeks, followed by 1 week dose-free. […] After 4 cycles, there was a documented 31% reduction in target lesion size (partial response). The treatment was interrupted due to brain metastases treated with whole brain radiation, but treatment with ganetespib resumed in cycle 5.

SK-BR-3 = test: 72 hr viability by CTG, breast cancer cell line; format: cell-based; details: Homo sapiens, SK-BR-3, Luminal, HER2+
Protocol: (§1) Breast cancer is a heterogeneous disease historically broken down into 4 subtypes. Various compounds were tested for their effects in cell viability assays using various breast cancer cell lines. Cellular viability was assessed using the CellTiter-Glo® Luminescent Cell Viability Assay (Promega, Madison, Wis., USA) according to the manufacturer's protocol. KRAS mutant NSCLC cell lines were seeded into 96-well plates based on optimal growth rates determined empirically for each line. Twenty-four hours after plating, cells were dosed with graded concentrations of ganetespib for 72 h. CellTiter-Glo® was added (50% v/v) to the cells, and the plates incubated for 10 min prior to luminescent detection in a SpectraMax® Plus 384 microplate reader (Molecular Devices, Sunnyvale, Calif., USA). Data were normalized to percent of control and IC50 values used to determine the sensitivity of each line. For the comparative analysis study with MEK and PI3K/mTOR inhibitors, A549, H2009, Calu-1, and H358 cells were treated with graded concentrations of ganetespib, AZD6244, or BEZ235 for 72 h and cell viability measured as above.
(§2) Breast cancer, cell lines, marker status, and IC50 in response to ganetespib at 72 hr (viability by CTG).

MDA-MB-468 = test: 72 hr viability by CTG, breast cancer cell line; format: cell-based; details: Homo sapiens, MDA-MB-468, Basal A
Protocol: as §1, §2

BT-474 = test: 72 hr viability by CTG, breast cancer cell line; format: cell-based; details: Homo sapiens, BT-474, Luminal, ER+ PR+ HER2+, viability by CTG (2D)
Protocol: as §1, §2

MCF7 = test: 72 hr viability by CTG, breast cancer cell line; format: cell-based; details: Homo sapiens, MCF7, Luminal, ER+ PR+
Protocol: as §1, §2

OCUB-M = test: 72 hr viability by CTG, breast cancer cell line; format: cell-based; details: Basal
Protocol: as §1, §2

[1] = tested on: 15 KRAS mutant NSCLC cell lines; test: Viability of KRAS mutant NSCLC cell line panel, 72 h, CellTiter-Glo; format: cell-based; details: across 15 KRAS mutant NSCLC cell lines in vitro
Protocol: as §1

MDA-MB-231 = test: 72 hr viability by CTG, breast cancer cell line; format: cell-based
Protocol: as §1, §2
Basal breast cancer is a subtype believed to be more stem like and less differentiated than luminal breast cancer, and therefore more aggressive with limited treatment options. […]

[2] = 41 of 54 enrolled patients assessable for response
[3] = one TNBC patient, 144 mg/m^2 twice-weekly for 3 weeks, 1 week dose-free

Question: With `CC(C)c1cc(-c2nnc(O)n2-c2ccc3c(ccn3C)c2)c(O)cc1O` [ganetespib] as the compound, how does the “Confirmed partial responses, patient with melanoma” value (solid tumors; [2]) read?
Answer: 1 patient

Question: And the “Confirmed partial responses, patient with triple negative breast cancer” value (solid tumors; [2])?
Answer: 1 patient

Question: What about the “Patients who achieved stable disease” value (solid tumors; [2]) of the same compound?
Answer: 15 patients

Question: What about the Tolerability (solid tumors; one TNBC patient, 144 mg/m^2 twice-weekly) of the same compound?
Answer: tolerated the treatment well with mild/moderate toxicities

Question: What about the “Reduction in target lesion size after 4 cycles (partial response)” value (solid tumors; [3]) of the same compound?
Answer: 31%

Question: And the “Response per RECIST after 2 cycles” value (solid tumors; [3])?
Answer: stable disease

Question: What about the IC50 (SK-BR-3) of the same compound?
Answer: 10 nM

Question: And the IC50 (MDA-MB-468)?
Answer: 27 nM

Question: What about the IC50 (BT-474) of the same compound?
Answer: 13 nM

Question: What about the IC50 (MCF7) of the same compound?
Answer: 25 nM

Question: What about the IC50 (OCUB-M) of the same compound?
Answer: 39 nM

Question: What about the IC50 [1] of the same compound?
Answer: 24 nM

Question: And the “Anticancer activity in the basal line MDA-MB-231” value (MDA-MB-231; 72 hr viability assay, FIG. 1)?
Answer: highly potent, killing all the cells

Question: What about the IC50 (MDA-MB-231; Homo sapiens, MDA-MB-231, Basal B, 72 hr, viability by CTG) of the same compound?
Answer: 24 nM
